The text below walks through data of US11939320B2, “Modulators of the integrated stress pathway” (Calico Life Sciences LLC, priority 2017, dated 2024).

This test relates to HEK293T cells carrying the ATF4 luciferase reporter. Put plainly: ATF4-Luc assay (in vitro model of VWMD). It counts as cell-based. Particulars: Homo sapiens, HEK-293T; HEK293T cells with ATF4 5'-UTR firefly luciferase reporter; 1 μg/mL tunicamycin; 7 hours; One Glo luminescence. The method, then: In order to test exemplary compounds of the invention in a cellular context, a stable VWMD cell line was first constructed. The ATF4 reporter was prepared by fusing the human full-length ATF4 5′-UTR (NCBI Accession No. BC022088.2) in front of the firefly luciferase (FLuc) coding sequence lacking the initiator methionine as described in Sidrauski et al (eLife 2013). The construct was used to produce recombinant retroviruses using standard methods and the resulting viral supernatant was used to transduce HEK293T cells, which were then subsequently selected with puromycin to generate a stable cell line.
HEK293T cells carrying the ATF4 luciferase reporter were plated on polylysine coated 384-well plates (Greiner Bio-one) at 30,000 cells per well. Cells were treated the next day with 1 μg/mL tunicamycin and 200 nM of a compound of Formula (I) for 7 hours. Luminescence was measured using One Glo (Promega) as specified by the manufacturer. Cells were maintained in DMEM with L-glutamine supplemented with 10% heat-inactivated FBS (Gibco) and Antibiotic-Antimycotic solution (Gibco).
Table 2 below summarizes the EC50 data obtained using the ATF4-Luc assay for exemplary compounds of the invention.
A general note: In a reporter assay the amount or activity of a reporter protein is the signal.
One may read the EC50 as the concentration needed to bring the measured effect to its halfway point. Regarding `O=C(COc1ccc(F)c(F)c1)N[C@H]1CC[C@H](C(=O)NCc2nc3cc(F)c(F)cc3[nH]2)CC1` [Compound 154, (1r,4r)-N-[(5,6-difluoro-1H-benzimidazol-2-yl)methyl]-4-[2-(3,4-difluorophenoxy)acetamido]cyclohexane-1-carboxamide], the EC50 is more than 2000 nM.

For `O=C(COc1ccc(Cl)cc1)N[C@H]1CC[C@H](C(=O)NCc2nc3cc(F)c(F)cc3[nH]2)CC1` [Compound 155, (1r,4r)-4-[2-(4-chlorophenoxy)acetamido]-N-[(5,6-difluoro-1H-benzimidazol-2-yl)methyl]cyclohexane-1-carboxamide], the EC50 was 500 to 2000 nM.

As to `O=C(COc1ccc(Cl)c(F)c1)N[C@@H]1CC[C@@H](C(=O)NCc2nc3cc(F)c(F)cc3[nH]2)OC1` [Compound 156, (2S,5R)-5-[2-(4-chloro-3-fluorophenoxy)acetamido]-N-[(5,6-difluoro-1H-benzimidazol-2-yl)methyl]oxane-2-carboxamide], the EC50 is 50 to 250 nM.

For `O=C(COc1ccc(Cl)c(F)c1)N[C@@H]1CC[C@@H](C(=O)NCc2ccc(OC(F)(F)F)cc2)OC1` [Compound 157, (2S,5R)-5-[2-(4-chloro-3-fluorophenoxy)acetamido]-N-{[4-(trifluoromethoxy)phenyl]methyl}oxane-2-carboxamide], the EC50 lay in the range of 50 to 250 nM.

In the case of `O=C(COc1ccc(Cl)c(F)c1)N[C@@H]1CC[C@@H](C(=O)NCc2ccc(C(F)(F)F)cc2)OC1` [Compound 158, (2S,5R)-5-[2-(4-chloro-3-fluorophenoxy)acetamido]-N-{[4-(trifluoromethyl)phenyl]methyl}oxane-2-carboxamide], the EC50 was 50 to 250 nM.

`O=C(COc1ccc(Cl)c(F)c1)N[C@H]1CC[C@H](C(=O)NCc2ccc(C(F)(F)F)cn2)OC1` [Compound 159, (2R,5S)-5-[2-(4-chloro-3-fluorophenoxy)acetamido]-N-{[5-(trifluoromethyl)pyridin-2-yl]methyl}oxane-2-carboxamide]: the EC50 is 10 to 50 nM.

On to `O=C(COc1ccc(Cl)c(F)c1)N[C@@H]1CC[C@@H](C(=O)N2CC(c3ccc(Cl)cc3)C2)OC1` [Compound 160, 2-(4-chloro-3-fluorophenoxy)-N-{(3R,6S)-6-[3-(4-chlorophenyl)azetidine-1-carbonyl]oxan-3-yl}acetamide], for which the EC50 lay in the range of 10 to 50 nM.

As to `O=C(COc1ccc(Cl)c(F)c1)NC1CCC(C(=O)NCc2ccc(C(F)(F)F)cn2)OC1` (stereo not shown) [Compound 166, 5-[2-(4-chloro-3-fluorophenoxy)acetamido]-N-{[5-(trifluoromethyl)pyridin-2-yl]methyl}oxane-2-carboxamide], the EC50 was more than 2000 nM.

With `O=C(COc1ccc(Cl)c(F)c1)N[C@@H]1CC[C@@H](C(=O)NCc2ccc3c(c2)OC(F)(F)O3)OC1` [Compound 167, (2S,5R)-5-[2-(4-chloro-3-fluorophenoxy)acetamido]-N-[(2,2-difluoro-2H-1,3-benzodioxol-5-yl)methyl]oxane-2-carboxamide], the EC50 was 50 to 250 nM.

Turning to `O=C(COc1ccc(Cl)c(F)c1)N[C@H]1C[C@H](C(=O)Nc2ccc(OC(F)F)nc2)C1` [Compound 168, (1r,3r)-3-[2-(4-chloro-3-fluorophenoxy)acetamido]-N-[6-(difluoromethoxy)pyridin-3-yl]cyclobutane-1-carboxamide], the EC50 was more than 2000 nM.

For the compound `O=C(COc1ccc(Cl)c(F)c1)N[C@H]1C[C@H](C(=O)NCc2ccc(Cl)cc2)C1` [Compound 169, (1r,3r)-3-[2-(4-chloro-3-fluorophenoxy)acetamido]-N-[(4-chlorophenyl)methyl]cyclobutane-1-carboxamide], the EC50 was more than 2000 nM.

As to `O=C(COc1ccc(Cl)c(F)c1)N[C@H]1CC[C@H](C(=O)NCc2cc(OC3CCC3)ccn2)CC1` [Compound 170, (1r,4r)-4-[2-(4-chloro-3-fluorophenoxy)acetamido]-N-{[4-(cyclobutyloxy)pyridin-2-yl]methyl}cyclohexane-1-carboxamide], the EC50 is more than 2000 nM.

Take `O=C(COc1ccc(Cl)c(F)c1)N[C@H]1CC[C@H](C(=O)NCc2cc(C(F)(F)F)ccn2)CC1` [Compound 171, (1r,4r)-4-[2-(4-chloro-3-fluorophenoxy)acetamido]-N-{[4-(trifluoromethyl)pyridin-2-yl]methyl}cyclohexane-1-carboxamide]: the EC50 fell in the range of 50 to 250 nM.

Regarding `NC(=O)c1ccc(CNC(=O)[C@H]2CC[C@H](NC(=O)COc3ccc(Cl)c(F)c3)CC2)nc1` [Compound 172, 6-[({(1r,4r)-4-[2-(4-chloro-3-fluorophenoxy)acetamido]cyclohexane-1-carbonyl}amino)methyl]pyridine-3-carboxamide], the EC50 is more than 2000 nM.

Consider `N#Cc1ccc(CNC(=O)[C@H]2CC[C@H](NC(=O)COc3ccc(Cl)c(Cl)c3)CC2)nc1` [Compound 173, (1r,4r)-N-[(5-cyanopyridin-2-yl)methyl]-4-[2-(3,4-dichlorophenoxy)acetamido]cyclohexane-1-carboxamide], for which the EC50 is 50 to 250 nM.

As to `O=C(COc1ccc(Cl)c(Cl)c1)N[C@@H]1CC[C@@H](C(=O)NCc2ccc(C(F)(F)F)cn2)OC1` [Compound 174, (2S,5R)-5-[2-(3,4-dichlorophenoxy)acetamido]-N-{[5-(trifluoromethyl)pyridin-2-yl]methyl}oxane-2-carboxamide], the EC50 lay within 10 to 50 nM.

In the case of `O=C(COc1ccc(Cl)c(Cl)c1)N[C@H]1CC[C@H](C(=O)NCc2ccc(Cl)cn2)CC1` [Compound 175, (1r,4r)-N-[(5-chloropyridin-2-yl)methyl]-4-[2-(3,4-dichlorophenoxy)acetamido]cyclohexane-1-carboxamide], the EC50 is 50 to 250 nM.

Turning to `O=C(COc1ccc(Cl)c(F)c1)N[C@H]1CC[C@H](C(=O)NCc2ccc(Cl)cn2)CC1` [Compound 176, (1r,4r)-4-[2-(4-chloro-3-fluorophenoxy)acetamido]-N-[(5-chloropyridin-2-yl)methyl]cyclohexane-1-carboxamide], the EC50 is more than 2000 nM.

Turning to `O=C(COc1ccc(Cl)c(F)c1)N[C@H]1CC[C@H](C(=O)Nc2ccc(OC(F)(F)F)nc2)CC1` [Compound 177, (1r,4r)-4-[2-(4-chloro-3-fluorophenoxy)acetamido]-N-[6-(trifluoromethoxy)pyridin-3-yl]cyclohexane-1-carboxamide], the concentration for a half-maximal effect (EC50) was less than 10 nM.

As to `O=C(COc1ccc(Cl)c(F)c1)N[C@H]1CC[C@H](C(=O)NCCOc2ccc(Cl)c(F)c2)CC1` [Compound 178, (1r,4r)-4-[2-(4-chloro-3-fluorophenoxy)acetamido]-N-[2-(4-chloro-3-fluorophenoxy)ethyl]cyclohexane-1-carboxamide], the EC50 was in the range of 10 to 50 nM.

Regarding `O=C(COc1ccc(Cl)c(F)c1)N[C@H]1CC[C@H](C(=O)NCc2ccc3c(c2)OC(F)(F)O3)CC1` [Compound 179, (1r,4r)-4-[2-(4-chloro-3-fluorophenoxy)acetamido]-N-[(2,2-difluoro-2H-1,3-benzodioxol-5-yl)methyl]cyclohexane-1-carboxamide], the EC50 was 10 to 50 nM.

On to `O=C(COc1ccc(Cl)c(Cl)c1)N[C@H]1CC[C@H](C(=O)N(CCO)Cc2ccc(Cl)c(F)c2)CC1` [Compound 180, (1r,4r)-N-[(4-chloro-3-fluorophenyl)methyl]-4-[2-(3,4-dichlorophenoxy)acetamido]-N-(2-hydroxyethyl)cyclohexane-1-carboxamide], for which the EC50 is 500 to 2000 nM.
